Assay results reported in patent US20090099192A1, “Substituted 1H-pyrrole-2,5-diones” (Bayer CropScience AG, priority 2004, published 2009).

Experiments:
[1] = logP determination by HPLC on reversed-phase column (C 18), EEC Directive 79/831 Annex V.A8; format: physicochemical; details: reversed-phase C 18, 43° C., acid range (0.1% aqueous phosphoric acid, acetonitrile), marked a)
Summary of the method: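 Reversed-phase C18 HPLC at 43° C, per EEC Directive 79/831 Annex V.A8, acid range: 0.1% aqueous phosphoric acid with linear 10–90% acetonitrile gradient. logP derived from retention time by linear interpolation between calibrating unbranched alkan-2-ones (C3–C16) of known logP.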

[2] = tested on: caterpillars of the army worm (Spodoptera frugiperda); test: Spodoptera frugiperda test (cabbage leaves dipped); format: in vivo; details: for Kill rate in % after 7 d: 500 ppm, leaf dip, Brassica oleracea
Protocol: (§1) [table] To produce a suitable preparation of active compound, 1 part by weight of active compound is mixed with the stated amount of solvent and the stated amount of emulsifier, and the concentrate is diluted with emulsifier-containing water to the desired concentration. Cabbage leaves (Brassica oleracea) are treated by being dipped into the active compound preparation of the desired concentration and populated with caterpillars of the army worm (Spodoptera frugiperda) while the leaves are still moist. After the desired period of time, the kill in % is determined. 100% means that all caterpillars have been killed; 0% means that none of the caterpillars have been killed.

[3] = tested on: larvae of the mustard beetle (Phaedon cochleariae); test: Phaedon test (spray treatment); format: in vivo; details: for Kill rate in % after 7 d: 500 g/ha, spray, Brassica pekinensis disks
Protocol: (§2) [table] To produce a suitable preparation of active compound, 1 part by weight of active compound is mixed with the stated amounts of solvents and emulsifier, and the concentrate is diluted with emulsifier-containing water to the desired concentration. Disks of Chinese cabbage (Brassica pekinensis) are sprayed with an active compound preparation of the desired concentration and, after drying, populated with larvae of the mustard beetle (Phaedon cochleariae). After the desired period of time, the effect in % is determined. 100% means that all beetle larvae have been killed; 0% means that none of the beetle larvae have been killed.

[4] = tested on: common spidermite (Tetranychus urticae); test: Tetranychus test; format: in vivo; details: for Kill rate in % after 5 d: 500 ppm, spray, Phaseolus vulgaris disks
Protocol: To produce a suitable preparation of active compound, 1 part by weight of active compound is mixed with the stated amounts of solvent and emulsifier, and the concentrate is diluted with emulsifier-containing water to the desired concentration.
Disks of beans (Phaseolus vulgaris), which are infested by all stages of the common spidermite (Tetranychus urticae) are sprayed with an active compound preparation of the desired concentration.
After the desired period of time, the effect in % is determined. 100% means that all spidermites have been killed; 0% means that none of the spidermites have been killed.

[5] = tested on: green peach aphid (Myzus persicae); test: Myzus test - oral; format: in vivo; details: for Kill rate in % after 6 d: 100 ppm, oral (sucking)
Protocol: [table] To produce a suitable preparation of active compound, 1 part by weight of active compound is mixed with the stated amounts of solvent, and the concentrate is diluted with water to the desired concentration. Vessels are populated with all stages of the green peach aphid (Myzus persicae), which are treated by sucking on the active compound preparation of the desired concentration. After the desired period of time, the effect in % is determined. 100% means that all aphids have been killed; 0% means that none of the aphids have been killed.

[6] = tested on: caterpillars of the army worm (Spodoptera frugiperda); test: Spodoptera frugiperda test (corn leaf disks sprayed); format: in vivo; details: for Kill rate in % after 7 d: 500 g/ha, spray, Zea mays leaf disks
Protocol: as §2, with “corn leaves (Zea mays)” for “Chinese cabbage (Brassica pekinensis)”, “caterpillars” for “larvae”, “army worm (Spodoptera frugiperda).” for “mustard beetle (Phaedon cochleariae).”, “caterpillars” for “beetle larvae”

[7] = tested on: green peach aphid (Myzus persicae); test: Myzus test (spray treatment, Brassica pekinensis); format: in vivo; details: for Kill rate in % after 5 d: 500 g/ha, spray, Brassica pekinensis disks
Protocol: as §2, with “pekinensis) which are infested by all stages of the green peach aphid (Myzus persicae)” for “pekinensis)”, “concentration.” for “concentration and, after drying, populated with larvae of the mustard beetle (Phaedon cochleariae).”, “aphids” for “beetle larvae”

[8] = tested on: larvae of the mustard beetle (Phaedon cochleariae); test: Phaedon larvae test (cabbage leaves dipped); format: in vivo
Protocol: as §1, with “with” for “with emulsifier-containing”, “with larvae” for “with caterpillars”, “the mustard beetle (Phaedon cochleariae)” for “the army worm (Spodoptera frugiperda)”, “all beetle larvae” for “all caterpillars”, “the beetle larvae” for “the caterpillars”

Structure (SMILES) | logP [1] | activity in the Spodoptera frugiperda test (leaf dip) [2] | Kill rate in % after 7 d [2] | activity in the Phaedon test (spray treatment) [3] | Kill rate in % after 7 d [3] | activity in the Tetranychus test [4] | Kill rate in % after 5 d [4] | activity in the Myzus test - oral [5] | activity in the Spodoptera frugiperda test (spray) [6] | Kill rate in % after 7 d [6] | Kill rate in % after 6 d [5] | activity in the Myzus test (spray, Brassica pekinensis) [7] | Kill rate in % after 5 d [7] | activity in the Phaedon larvae test [8] | Kill rate in % after 7 d ([8]; 500 ppm, leaf dip, Brassica oleracea)
O=C1C(O)=C(c2cc(Cl)cc(Cl)c2)C(=O)N1c1ccc(Cl)cc1 [Example 11] | logP = 3.27^a) | good activity | 100% |  |  |  |  |  |  |  |  |  |  |  | 
O=C1C(O)=C(c2ccc(OC(F)(F)F)cc2)C(=O)N1c1ccc(C(F)(F)F)cc1 [Example 12] | logP = 3.97^a) | good activity | 100% |  |  |  |  |  |  |  |  |  |  |  | 
O=C1C(O)=C(c2ccc(C(F)(F)F)cc2)C(=O)N1c1ccc(C(F)(F)F)cc1 [Example 13] | logP = 3.51^a) | good activity | 100% |  |  |  |  |  |  |  |  |  |  |  | 
CC(C)C1CCCC(N2C(=O)C(O)=C(c3ccccc3Cl)C2=O)C1 (stereo not shown) [Example 195] |  |  |  | good activity | 100% |  |  | good activity | good activity | 100% | 100% |  |  |  | 
CC1CCCC(N2C(=O)C(O)=C(c3ccccc3Cl)C2=O)C1 (stereo not shown) [Example 196] | logP = 3.57^a) |  |  | good activity | 100% |  |  | good activity | good activity | 100% | 100% |  |  |  | 
O=C1C(O)=C(c2ccccc2Cl)C(=O)N1C1CCCCC1C(F)(F)F (stereo not shown) [Example 205] | logP = 3.27^a) |  |  | good activity | 100% |  |  |  |  |  | 100% |  |  |  | 
CC(C)(C)C(=O)OC1=C(c2ccccc2Cl)C(=O)N(C2CCC(C(F)(F)F)CC2)C1=O (stereo not shown) [Example 207] | logP = 5.31^a) |  |  | good activity | 100% |  | 90% |  |  |  |  | good activity | 100% |  | 
O=C1C(O)=C(c2ccccc2C(F)(F)F)C(=O)N1C1CCCC(C(F)(F)F)C1 (stereo not shown) [Example 217] |  |  |  | good activity | 100% |  |  | good activity | good activity | 100% | 100% | good activity | 100% |  | 
O=C1C(O)=C(c2ccccc2I)C(=O)N1C1CCCC(C(F)(F)F)C1 (stereo not shown) [Example 219] |  |  |  | good activity | 100% |  |  | good activity | good activity | 100% | 100% | good activity | 90% |  | 
CC(C)(C)C(=O)OC1=C(c2ccccc2I)C(=O)N(C2CCCC(C(F)(F)F)C2)C1=O (stereo not shown) [Example 221] |  |  |  | good activity | 100% | good activity | 80% |  |  |  |  | good activity | 100% |  | 

More lines, main results first:

logP [1] | Structure (SMILES) | activity in the Spodoptera frugiperda test (leaf dip) [2] | Kill rate in % after 7 d [2] | activity in the Phaedon test (spray treatment) [3] | Kill rate in % after 7 d [3] | activity in the Tetranychus test [4] | Kill rate in % after 5 d [4] | activity in the Myzus test - oral [5] | activity in the Spodoptera frugiperda test (spray) [6] | Kill rate in % after 7 d [6] | Kill rate in % after 6 d [5] | activity in the Myzus test (spray, Brassica pekinensis) [7] | Kill rate in % after 5 d [7] | activity in the Phaedon larvae test [8] | Kill rate in % after 7 d ([8]; 500 ppm, leaf dip, Brassica oleracea)
logP = 4.05^a) | O=C1C(O)=C(c2c(Cl)cc(C(F)(F)F)cc2Cl)C(=O)N1C1CCCC(C(F)(F)F)C1 (stereo not shown) [Example 191] |  |  | good activity | 100% | good activity | 90% |  |  |  |  |  |  |  | 
logP = 3.56^a) | O=C1C(O)=C(c2ccc(F)cc2C(F)(F)F)C(=O)N1C1CCCC(C(F)(F)F)C1 (stereo not shown) [Example 192] |  |  | good activity | 100% | good activity | 90% | good activity |  |  |  |  |  |  | 
logP = 3.42^a) | O=C1C(O)=C(c2cc(F)cc(F)c2F)C(=O)N1C1CCCC(C(F)(F)F)C1 (stereo not shown) [Example 193] |  |  | good activity | 100% | good activity | 90% |  |  |  |  |  |  |  | 
logP = 4.53^a) | CCOCOC1=C(c2ccccc2Cl)C(=O)N(C2CCCC(C(F)(F)F)C2)C1=O (stereo not shown) [Example 202] |  |  | good activity | 100% | good activity | 80% |  | good activity | 100% |  | good activity | 80% |  | 
logP = 4.48^a) | O=C1C(O)=C(c2cc(Cl)cc(Cl)c2)C(=O)N1C1CCC(C(F)(F)F)CC1 (stereo not shown) [Example 212] | good activity | 100% | good activity | 100% |  |  |  | good activity | 100% |  |  |  | good activity | 100%
